# Data from ChEMBL document CHEMBL1135579, “Serine-threonine protein phosphatase inhibitors: development of potential therapeutic strategies” (J Med Chem, 2002).
# pIC50: −log10 of the molar value. Numbered stars: 1 amine (or outer) side, 2 acyl side, 3 side chain; on linkers, the order of the positions; unused ones are H or OH. Bridge positions count the residues as written; N and C are the ends. Square brackets hold non-standard residues; d marks the D form. Peptide text beside a SMILES is read from it. Adda = CO[C@@H](Cc1ccccc1)[C@@H](C)/C=C(C)/C=C/[C@H](N[*:1])[C@H](C)C(=O)[*:2]; dAsp(3S-Me) = C[C@H](C(=O)[*:3])[C@@H](N[*:1])C(=O)[*:2]; d(γGlu) = O=C(O)[C@@H](CCC(=O)[*:2])N[*:1]; NMeDha = C=C(NC)C(=O)O
# How the values were obtained:
# [1] = Exogenous inhibition concentration of Serine/threonine protein phosphatase 2A (PP2A)
# [2] = Exogenous inhibition concentration of Serine/threonine protein phosphatase 2C ([…])
# [3] = Exogenous inhibition concentration of Serine/threonine protein phosphatase 2C (PP2C); NI means no inhibition.
# [4] = Exogenous inhibition of Serine/threonine protein phosphatase 1 (PP1); parameters: species or system Homo sapiens
# HCT-8 = assay: Reduction of tumor cell growth to 50% in Fostriecin analogues in HCT-8 colon cancer cell lines; format: functional; details: Homo sapiens
# L1210 = assay: Reduction of tumor cell growth to 50% in Fostriecin analogues in L1210 Leukemia cell lines; format: functional; details: Mus musculus
# [5] = Inhibition of growth after 72 hr continuous exposure to test compounds in Ovarian A2780 tumor cell lines; format: functional; details: A2780, 72 h
# [6] = Inhibition of growth after 72 hr continuous exposure to test compounds in Osteosarcoma 143B tumor cell lines; format: functional; details: Homo sapiens
# [7] = Inhibition of growth after 72 hr continuous exposure to test compounds in Ovarian ADDP tumor cell lines; format: functional
# [8] = target: T1, Serine/threonine-protein phosphatase PP1-gamma catalytic subunit (Homo sapiens, UniProt P36873); assay: Inhibition of Serine/threonine protein phosphatase 1 by anhydride modified Cantharidin analogues
# Target sequence in this assay (P36873 whole entry): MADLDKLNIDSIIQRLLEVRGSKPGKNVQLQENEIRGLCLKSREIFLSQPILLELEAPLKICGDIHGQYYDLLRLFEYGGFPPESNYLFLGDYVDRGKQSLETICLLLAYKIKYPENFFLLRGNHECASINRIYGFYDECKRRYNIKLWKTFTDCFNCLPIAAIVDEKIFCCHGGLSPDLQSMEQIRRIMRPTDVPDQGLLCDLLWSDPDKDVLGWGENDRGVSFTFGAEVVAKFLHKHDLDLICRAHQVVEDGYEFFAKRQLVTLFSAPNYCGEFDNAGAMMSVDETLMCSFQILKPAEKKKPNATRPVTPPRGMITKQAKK
# [9] = Inhibition of growth after 72 hr continuous exposure to test compounds in Colon HCT 116 tumor cell lines; format: functional; details: Homo sapiens, HCT-116, 72 h
# [10] = Inhibition of growth after 72 hr continuous exposure to test compounds in colon HT-29 tumor cell lines; format: functional; details: Homo sapiens, HT-29, 72 h
# [11] = Exogenous inhibition concentration of Serine/threonine protein phosphatase 2B (PP2B)
# Jurkat [12] = assay: Inhibition of production of IL-2 secretion in Jurkat cells; format: functional, cell-based; details: Homo sapiens
# Jurkat [13] = assay: Inhibition of production of beta-galactosidase thymidine kinase RGA in Jurkat cells; format: functional, cell-based; details: Homo sapiens
# Jurkat [14] = assay: Inhibition of production of beta-galactosidase IL-2 RGA in Jurkat cells; format: functional, cell-based; details: Homo sapiens
# [15] = Inhibition of microcystin analogues to catalytic subunits of Serine/threonine protein phosphatase 1C
# [16] = target: T1, Serine/threonine-protein phosphatase PP1-gamma catalytic subunit; assay: Inhibition of Serine/threonine protein phosphatase 1 (PP1) mutants by natural toxins in wild type
# Target sequence in this assay (P36873 2-323 limits assumed, change not shown): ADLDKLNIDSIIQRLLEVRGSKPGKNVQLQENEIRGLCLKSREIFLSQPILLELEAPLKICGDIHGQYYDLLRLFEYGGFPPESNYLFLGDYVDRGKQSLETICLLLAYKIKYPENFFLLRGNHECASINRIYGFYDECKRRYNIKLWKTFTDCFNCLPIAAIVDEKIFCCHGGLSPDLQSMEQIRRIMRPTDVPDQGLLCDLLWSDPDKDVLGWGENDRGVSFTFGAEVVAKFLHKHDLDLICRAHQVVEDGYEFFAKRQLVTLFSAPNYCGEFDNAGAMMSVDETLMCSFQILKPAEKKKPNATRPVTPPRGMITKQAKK
# [17] = Exogenous inhibition concentration of Serine/threonine protein phosphatase 5 (PP5)
# [18] = target: Serine/threonine-protein phosphatase PP1-gamma catalytic subunit (Homo sapiens, UniProt P36873, C127S); assay: Inhibition of Serine/threonine protein phosphatase 1 (PP1) mutants by natural toxins in C127S
# [19] = target: Serine/threonine-protein phosphatase PP1-gamma catalytic subunit (Homo sapiens, UniProt P36873, D208A); assay: Inhibition of Serine/threonine protein phosphatase 1 (PP1) mutants by natural toxins in D208A
# [20] = target: Serine/threonine-protein phosphatase PP1-gamma catalytic subunit (Homo sapiens, UniProt P36873, D220V); assay: Inhibition of Serine/threonine protein phosphatase 1 (PP1) mutants by natural toxins in D220V
# [21] = target: Serine/threonine-protein phosphatase PP1-gamma catalytic subunit (Homo sapiens, UniProt P36873, E275R); assay: Inhibition of Serine/threonine protein phosphatase 1 (PP1) mutants by natural toxins in E275R
# [22] = target: Serine/threonine-protein phosphatase PP1-gamma catalytic subunit (Homo sapiens, UniProt P36873, H248N); assay: Inhibition of Serine/threonine protein phosphatase 1 (PP1) mutants by natural toxins in H248N
# [23] = target: Serine/threonine-protein phosphatase PP1-gamma catalytic subunit (Homo sapiens, UniProt P36873, R221S); assay: Inhibition of Serine/threonine protein phosphatase 1 (PP1) mutants by natural toxins in R221S
# [24] = target: Serine/threonine-protein phosphatase PP1-gamma catalytic subunit (Homo sapiens, UniProt P36873, R96A); assay: Inhibition of Serine/threonine protein phosphatase 1 (PP1) mutants by natural toxins in R96A
# [25] = target: Serine/threonine-protein phosphatase PP1-gamma catalytic subunit (Homo sapiens, UniProt P36873, Y272F); assay: Inhibition of Serine/threonine protein phosphatase 1 (PP1) mutants by natural toxins in Y272F
# [26] = Exogenous inhibition concentration of Serine/threonine protein phosphatase 4 (PP4)
# [27] = target: Serine/threonine-protein phosphatase PP1-gamma catalytic subunit (Homo sapiens, UniProt P36873, N124D); assay: Inhibition of Serine/threonine protein phosphatase 1 (PP1) mutants by natural toxins in N124D
# Sequence of Serine/threonine-protein phosphatase PP1-gamma catalytic subunit (Homo sapiens, UniProt P36873, N124D) (P36873 2-323 N124D limits assumed): as the sequence (P36873 2-323 limits assumed, change not shown) above, with N123D counted along it
# Sequence of Serine/threonine-protein phosphatase PP1-gamma catalytic subunit (Homo sapiens, UniProt P36873, D220V) (P36873 2-323 D220V limits assumed): as the sequence (P36873 2-323 limits assumed, change not shown) above, with D219V counted along it
# Sequence of Serine/threonine-protein phosphatase PP1-gamma catalytic subunit (Homo sapiens, UniProt P36873, Y272F) (P36873 2-323 Y272F limits assumed): as the sequence (P36873 2-323 limits assumed, change not shown) above, with Y271F counted along it
# Sequence of Serine/threonine-protein phosphatase PP1-gamma catalytic subunit (Homo sapiens, UniProt P36873, R221S) (P36873 2-323 R221S limits assumed): as the sequence (P36873 2-323 limits assumed, change not shown) above, with R220S counted along it
# Sequence of Serine/threonine-protein phosphatase PP1-gamma catalytic subunit (Homo sapiens, UniProt P36873, D208A) (P36873 2-323 D208A limits assumed): as the sequence (P36873 2-323 limits assumed, change not shown) above, with D207A counted along it
# Sequence of Serine/threonine-protein phosphatase PP1-gamma catalytic subunit (Homo sapiens, UniProt P36873, R96A) (P36873 2-323 R96A limits assumed): as the sequence (P36873 2-323 limits assumed, change not shown) above, with R95A counted along it
# Sequence of Serine/threonine-protein phosphatase PP1-gamma catalytic subunit (Homo sapiens, UniProt P36873, E275R) (P36873 2-323 E275R limits assumed): as the sequence (P36873 2-323 limits assumed, change not shown) above, with E274R counted along it
# Sequence of Serine/threonine-protein phosphatase PP1-gamma catalytic subunit (Homo sapiens, UniProt P36873, H248N) (P36873 2-323 H248N limits assumed): as the sequence (P36873 2-323 limits assumed, change not shown) above, with H247N counted along it
# Sequence of Serine/threonine-protein phosphatase PP1-gamma catalytic subunit (Homo sapiens, UniProt P36873, C127S) (P36873 2-323 C127S limits assumed): as the sequence (P36873 2-323 limits assumed, change not shown) above, with C126S counted along it
smiles,measurement,setting,value
CO[C@H]([C@H](O)CC(=O)[C@@H](C)[C@@H](O)CC[C@@H](C)[C@@H]1O[C@]2(CC[C@@H](C)[C@H](CC[C@H](C)C(C)=O)O2)CC[C@@H]1C)[C@H](OC(=O)C[C@@H](O)C1=C(C)C(=O)OC1=O)C(C)C [TAUTOMYCIN],pIC50,[1],9.15
same,pIC50,[2],1.15
same,IC50,[3],no inhibition
same,pIC50,[4],9.15
C[C@@](O)(/C=C/[C@H]1CC=CC(=O)O1)[C@H](O)C[C@@H](O)\C=C/C=C\C=C\CO,GI50,HCT-8,3.7 µM
same,GI50,L1210,2.5 µM
COC1OC(=O)[C@H]2[C@@H]1[C@@H]1CC[C@H]2O1 (stereo not given in full),GI50,[5],538 µM
same,GI50,[6],> 1000 µM
same,GI50,[7],323 µM
same,pIC50,[8],< 3.00
same,GI50,[9],143 µM
same,GI50,[10],28 µM
CC(=O)OC(C)(C)[C@H]1CC[C@](C)([C@@H](O)CC[C@](C)(O)[C@H]2CC[C@H]3O[C@@H]([C@]4(C)CC[C@@H](Br)C(C)(C)O4)CC[C@]3(C)O2)O1,pIC50,[1],5.40
same,pIC50,[11],< 2.00
same,pIC50,[4],< 3.00
C=CC[C@@H]1/C=C(\C)C[C@H](C)C[C@H](OC)[C@H]2O[C@@](O)(C(=O)C(=O)N3CCCC[C@H]3C(=O)O[C@H](/C(C)=C/[C@@H]3CC[C@@H](O)[C@H](OC)C3)[C@H](C)[C@@H](O)CC1=O)[C@H](C)C[C@@H]2OC [TACROLIMUS ANHYDROUS],pIC50,[11],9.30
CCCOC1OC(=O)[C@H]2[C@@H]1[C@@H]1CC[C@H]2O1 (stereo not given in full),GI50,[5],375 µM
same,GI50,[6],> 1000 µM
same,GI50,[7],535 µM
same,GI50,[9],195 µM
same,GI50,[10],41 µM
C/C=C/C[C@@H](C)[C@@H](O)[C@H]1C(=O)N[C@@H](CC)C(=O)N(C)CC(=O)N(C)[C@@H](CC(C)C)C(=O)N[C@@H](C(C)C)C(=O)N(C)[C@@H](CC(C)C)C(=O)N[C@@H](C)C(=O)N[C@H](C)C(=O)N(C)[C@@H](CC(C)C)C(=O)N(C)[C@@H](CC(C)C)C(=O)N(C)[C@@H](C(C)C)C(=O)N1C [CYCLOSPORINE],pIC50,Jurkat [12],8.15
same,pIC50,Jurkat [13],< 6.00
same,pIC50,Jurkat [14],8.10
C/C=C/C=C\C=C/[C@H](O)C[C@@H](OP(=O)(O)O)[C@](C)(O)/C=C/[C@H]1CC=CC(=O)O1,GI50,HCT-8,1.5 µM
same,GI50,L1210,0.22 µM
C[C@@]12C(=O)OC(=O)[C@]1(C)[C@H]1CC[C@@H]2O1 [CANTHARIDIN],GI50,[5],10 µM
same,GI50,[6],10 µM
same,GI50,[7],11 µM
same,pIC50,[11],< 3.00
same,pIC50,[4],6.30
same,GI50,[9],9 µM
same,GI50,[10],6.4 µM
C=C1C(=O)N[C@H](C)C(=O)N[C@@H](CC2CCCCC2)C(=O)C[C@@H](C(=O)O)[C@H](C)C(=O)N[C@@H](C)C(=O)N[C@@H](/C=C/C(C)=C/[C@H](C)[C@H](Cc2ccccc2)OC)[C@H](C)C(=O)N[C@@H](C(=O)O)CCC(=O)N1C,pIC50,[15],9.28
CC1(C(=O)O)C2CCC(O2)C1(C)C(=O)O (stereo not given),pIC50,[1],7.30
same,pIC50,[4],6.22
C=C1C(=O)N[C@H](C)C(=O)N[C@@H](CC(C)C)C(=O)N[C@@H](C(=O)O)[C@H](C)C(=O)N[C@@H](CCCNC(=N)N)C(=O)N[C@@H](/C=C/C(C)=C/[C@H](C)[C@H](Cc2ccccc2)OC)[C@H](C)C(=O)N[C@@H](C(=O)O)CCC(=O)N1C [MICROCYSTIN-LR] (R[Adda][d(γGlu)][NMeDha][dA]L[dAsp(3S-Me)]-OH; lactam N-7),pIC50,[16],10.70
same,pIC50,[17],< 9.00
same,IC50,[3],no inhibition
same,pIC50,[18],9.25
same,pIC50,[19],8.72
same,pIC50,[20],10.70
same,pIC50,[21],11.00
same,pIC50,[22],7.46
same,pIC50,[23],7.54
same,pIC50,[24],7.46
same,pIC50,[25],9.10
same,pIC50,[26],11.10
same,pIC50,[27],6.70
C=C1C(=O)N[C@H](CN)C(=O)N[C@@H](CC(C)C)C(=O)C[C@@H](C(=O)O)[C@H](C)C(=O)N[C@@H](C)C(=O)N[C@@H](/C=C/C(C)=C/[C@H](C)[C@H](Cc2ccccc2)OC)[C@H](C)C(=O)N[C@@H](C(=O)O)CCC(=O)N1C,pIC50,[15],8.52
CN(C)C(=O)C1C(C(=O)O)C2CC[C@H]1O2 (stereo not given in full),pIC50,Jurkat [12],5.30
same,pIC50,Jurkat [13],4.00
same,pIC50,Jurkat [14],5.33
C[C@]12C(=O)OC(=O)[C@H]1C1CC[C@H]2O1 [PALASONIN],pIC50,[1],6.92
same,pIC50,[4],6.15
